ChEMBL document CHEMBL1201862, “PubChem BioAssay data set” (2004)
The source made the active and inactive calls.

Legend:
[1] = target: T1, Zinc finger protein mex-5 (Caenorhabditis elegans, UniProt Q9XUB2); assay: MEX-5/TCR-2 RNA interaction inhibitors, dose response, biochemical, C. elegans, fluorescence polarization (AID 1960)
T1 sequence (Q9XUB2 whole entry): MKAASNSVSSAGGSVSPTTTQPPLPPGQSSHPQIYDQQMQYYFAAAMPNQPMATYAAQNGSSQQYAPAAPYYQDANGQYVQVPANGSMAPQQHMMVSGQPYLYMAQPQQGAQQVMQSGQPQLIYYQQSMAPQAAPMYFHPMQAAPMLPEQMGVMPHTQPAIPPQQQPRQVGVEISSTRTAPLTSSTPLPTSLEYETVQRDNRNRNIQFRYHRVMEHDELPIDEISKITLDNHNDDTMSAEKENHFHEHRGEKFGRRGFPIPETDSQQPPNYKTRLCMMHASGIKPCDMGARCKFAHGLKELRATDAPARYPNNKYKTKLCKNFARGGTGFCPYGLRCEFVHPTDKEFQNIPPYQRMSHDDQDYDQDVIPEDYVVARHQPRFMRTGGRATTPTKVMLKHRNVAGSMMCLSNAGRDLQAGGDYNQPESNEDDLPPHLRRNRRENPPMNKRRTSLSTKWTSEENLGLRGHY

[2] = target: T2, RNA-binding protein pos-1 (Caenorhabditis elegans, UniProt G5EF15); assay: inhibitors of POS-1/mex-3 RNA binding, dose response, biochemical, fluorescence polarization (AID 1964);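 also: purified POS-1 fused to maltose binding protein made in E. coli; potency of compounds blocking POS-1 binding to fluorescent RNA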
T2 sequence (G5EF15 whole entry): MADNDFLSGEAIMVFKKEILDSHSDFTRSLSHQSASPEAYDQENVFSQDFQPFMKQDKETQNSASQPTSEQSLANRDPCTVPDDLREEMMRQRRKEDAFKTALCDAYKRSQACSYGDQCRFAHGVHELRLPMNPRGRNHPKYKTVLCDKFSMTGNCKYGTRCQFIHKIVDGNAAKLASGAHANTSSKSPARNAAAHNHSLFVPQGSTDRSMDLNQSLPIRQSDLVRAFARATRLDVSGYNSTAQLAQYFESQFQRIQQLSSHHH

[3] = target: T3, DNA repair and recombination protein RAD54-like (Homo sapiens, UniProt Q92698); assay: inhibitors of human RAD54 branch migration, confirmation, biochemical, fluorescence, cherry-picked samples, dose series (AID 651657); assay type: functional
T3 sequence (Q92698 whole entry): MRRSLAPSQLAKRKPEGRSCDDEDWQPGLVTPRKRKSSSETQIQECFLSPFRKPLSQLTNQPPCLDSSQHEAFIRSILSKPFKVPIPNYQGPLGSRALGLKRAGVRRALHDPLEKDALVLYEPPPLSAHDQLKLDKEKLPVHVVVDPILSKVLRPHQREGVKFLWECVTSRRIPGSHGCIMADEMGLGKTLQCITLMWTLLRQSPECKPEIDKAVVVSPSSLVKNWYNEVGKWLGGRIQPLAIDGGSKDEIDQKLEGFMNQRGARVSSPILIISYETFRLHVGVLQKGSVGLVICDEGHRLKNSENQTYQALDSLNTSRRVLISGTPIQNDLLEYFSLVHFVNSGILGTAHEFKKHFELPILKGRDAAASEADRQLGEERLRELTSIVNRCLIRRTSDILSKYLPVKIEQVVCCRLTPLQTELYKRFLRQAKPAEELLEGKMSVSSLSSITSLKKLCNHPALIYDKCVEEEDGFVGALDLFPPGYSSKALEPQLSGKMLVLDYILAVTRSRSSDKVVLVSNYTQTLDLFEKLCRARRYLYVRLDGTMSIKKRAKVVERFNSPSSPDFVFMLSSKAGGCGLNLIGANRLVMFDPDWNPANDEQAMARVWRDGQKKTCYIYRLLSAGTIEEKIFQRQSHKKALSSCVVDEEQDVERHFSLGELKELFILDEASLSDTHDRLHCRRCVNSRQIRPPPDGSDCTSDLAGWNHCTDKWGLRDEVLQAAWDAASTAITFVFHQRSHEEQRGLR

[4] = target: T4, DNA repair protein RAD52 homolog (Homo sapiens, UniProt P43351); assay type: functional, biochemical
T4 sequence (P43351 whole entry): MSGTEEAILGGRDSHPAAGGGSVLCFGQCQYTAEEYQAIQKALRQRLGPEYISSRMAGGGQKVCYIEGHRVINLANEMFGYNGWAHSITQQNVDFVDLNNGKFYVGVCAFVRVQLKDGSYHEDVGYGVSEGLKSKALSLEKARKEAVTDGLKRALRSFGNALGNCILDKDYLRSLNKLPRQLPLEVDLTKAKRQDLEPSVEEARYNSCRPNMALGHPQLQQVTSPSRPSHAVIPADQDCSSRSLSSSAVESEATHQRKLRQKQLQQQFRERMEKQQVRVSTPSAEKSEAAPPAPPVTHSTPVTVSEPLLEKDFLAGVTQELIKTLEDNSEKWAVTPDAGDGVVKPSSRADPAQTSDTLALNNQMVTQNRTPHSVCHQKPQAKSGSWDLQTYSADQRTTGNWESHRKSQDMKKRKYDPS

[5] = target: T5, Corticotropin-releasing factor receptor 2/Corticotropin-releasing factor-binding protein (Homo sapiens, UniProt P24387+Q13324); assay: activators of CRF receptor 2 with binding protein – uHTS hits, confirmation (AID 602473); assay type: functional; details: read-out: EC50_Mean
T5 sequence (Q13324 whole entry): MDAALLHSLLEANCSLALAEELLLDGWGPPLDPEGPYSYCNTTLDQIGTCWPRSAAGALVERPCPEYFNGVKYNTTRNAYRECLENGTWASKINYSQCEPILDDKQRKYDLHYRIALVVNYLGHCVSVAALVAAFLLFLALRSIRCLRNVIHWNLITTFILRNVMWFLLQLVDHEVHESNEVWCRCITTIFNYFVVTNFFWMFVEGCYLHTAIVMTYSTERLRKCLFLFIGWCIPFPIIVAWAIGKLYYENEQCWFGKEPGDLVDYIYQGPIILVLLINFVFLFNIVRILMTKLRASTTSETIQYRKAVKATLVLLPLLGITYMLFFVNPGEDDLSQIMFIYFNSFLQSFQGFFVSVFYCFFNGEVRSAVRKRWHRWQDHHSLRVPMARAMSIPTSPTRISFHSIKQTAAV
T5 sequence (P24387 whole entry): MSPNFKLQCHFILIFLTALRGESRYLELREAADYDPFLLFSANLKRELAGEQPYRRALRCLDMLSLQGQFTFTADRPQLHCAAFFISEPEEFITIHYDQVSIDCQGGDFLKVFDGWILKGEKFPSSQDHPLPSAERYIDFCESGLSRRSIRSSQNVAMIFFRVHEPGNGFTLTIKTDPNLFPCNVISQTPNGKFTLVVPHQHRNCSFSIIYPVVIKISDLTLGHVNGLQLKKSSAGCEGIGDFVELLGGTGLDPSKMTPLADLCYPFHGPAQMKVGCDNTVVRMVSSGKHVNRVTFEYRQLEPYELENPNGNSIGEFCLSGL

[6] = LGR2 antagonists, dose response, cell-based, HEK293, CRE-luciferase reporter, cherry pick, set 2 (AID 743343); assay type: functional;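 also: transfected cells were stimulated with diluted bursicon conditioned medium after compound addition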
Paired box protein Pax-8 = Paired box protein Pax-8 (Homo sapiens, UniProt Q06710); assay: inhibitors of PAX8-driven TPO luciferase reporter, dose response, RMG-I cells, cherry-pick (AID 687027); assay type: functional, cell-based;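 also: luciferase reporter driven by Pax8 target thyroperoxidase promoter measured by SteadyGlo luminescence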
[7] = HepG2 cell cytotoxicity, dose response, cytotoxicity control, plate reader, cherry-pick, antagonist series (AID 743416); assay type: functional, cell-based
[8] = MC4R antagonists, dose response, counter-screen for LGR2 antagonist project, cell-based, plate reader, cherry pick (AID 743444); assay type: functional;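 also: transfected HEK 293 cells stimulated with alpha-MSH peptide; potency of inhibitors of the alpha-MSH evoked signal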
[9] = HEK293 cell cytotoxicity, dose response, cytotoxicity control, plate reader, cherry-picked samples (AID 743446); assay type: functional, cell-based
[10] = A549 cell cytotoxicity, dose response, cytotoxicity control, plate reader, cherry-pick, antagonist series (AID 743412); assay type: functional, cell-based
[11] = non-specific cell cytotoxicity, dose response, cytotoxicity control for PAX8 inhibitor project, plate reader, dry powder samples (AID 743021); assay type: functional, cell-based
[12] = inhibitors of PGC1a acetylation in cells, dose response, cell-based, cherry-picked samples (AID 720514); assay type: functional;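 also: potency may reflect raised or lowered acetylation signal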
[13] = inhibitors of HIV Env-driven cell fusion, dose response, cherry-pick (AID 652057); assay type: functional, cell-based
[14] = inhibitors of clade B AD8 Env fusion, dose response, cell-based, cherry-pick (AID 652062); assay type: functional;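 also: luciferase signal from cell-cell fusion driven by HIV-1 clade B AD8 Env; potency is for inhibitors of fusion seen as a drop in luminescence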
[15] = ZM109 Env clade C HIV-1 fusion inhibitors, dose response, HeLa effector, CEM target cells, luciferase, cherry-pick (AID 652058); assay type: functional, cell-based
[16] = off-target signal loss in HeLa-CEM21 co-culture – HeLa F-luc CTL cells, cherry-picked, counter-screen for HIV-1 Env fusion inhibitor project, dose response (AID 652040); assay type: functional, cell-based;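 also: potency for signal decrease marking cytotoxic or nonspecific inhibition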
Streptococcus = assay: Group A Streptococcus viability loss, dose response, counter-screen for streptokinase expression inhibitor project, luminescence, BacTiterGlo (AID 1915); assay type: functional, organism-based;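 also: potency for reduction of bacterial viability or growth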
[17] = system: Streptococcus sp. 'group A'; assay: growth inhibition of control SK(-) GAS strain, dose response, counter-screen for streptokinase expression inhibitor project, luminescence, kanamycin, BacTiterGlo, confirmation (AID 1900); assay type: functional, organism-based
[18] = THP-1 cell cytotoxicity, dose response, cytotoxicity control for Vif-APOBEC3G degradation inhibitor project, THP-1 cells (AID 1117359); assay type: functional; details: Human immunodeficiency virus 1, THP-1
Streptokinase A = target: T6, Streptokinase A (Streptococcus pyogenes serotype M1, UniProt P10520); assay: S. pyogenes streptokinase expression inhibitors, potency, dose response, plasminogen activation absorbance, OD405 (AID 1914); assay type: functional, Streptococcus pyogenes M1 GAS;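 also: secreted streptokinase activity via plasminogen activation per viability signal from cell pellet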
T6 sequence (P10520 whole entry): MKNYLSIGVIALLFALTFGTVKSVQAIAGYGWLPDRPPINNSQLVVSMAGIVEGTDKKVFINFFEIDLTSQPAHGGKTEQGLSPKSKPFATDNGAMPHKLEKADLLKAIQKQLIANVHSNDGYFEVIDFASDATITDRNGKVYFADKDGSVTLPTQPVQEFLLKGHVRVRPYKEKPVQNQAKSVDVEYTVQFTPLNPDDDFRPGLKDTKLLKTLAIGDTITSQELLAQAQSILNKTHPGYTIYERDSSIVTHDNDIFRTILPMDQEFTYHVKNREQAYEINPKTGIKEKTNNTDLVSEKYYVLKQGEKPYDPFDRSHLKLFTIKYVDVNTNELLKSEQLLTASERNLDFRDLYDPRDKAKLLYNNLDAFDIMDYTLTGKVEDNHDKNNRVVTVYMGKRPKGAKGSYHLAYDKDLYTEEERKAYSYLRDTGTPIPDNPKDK

H9c2 = assay: cells; assay type: functional, cell-based; details: Rattus norvegicus, H9c2, Myocardium;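 also: confirmatory concentration-response retest of ultra-high-throughput screening hits for modulation of myocardial damage; cell death induced by hydrogen peroxide oxidative stress; compound pretreatment for 60 min then peroxide exposure for 2 h; potency is for protecting the cells against peroxide damage rather than for killing them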
cells [19] = assay type: functional, cell-based
cells [20] = assay type: functional, cell-based; remark: listed apart in the source

Paired box protein Pax-8, sequence (Q06710 whole entry): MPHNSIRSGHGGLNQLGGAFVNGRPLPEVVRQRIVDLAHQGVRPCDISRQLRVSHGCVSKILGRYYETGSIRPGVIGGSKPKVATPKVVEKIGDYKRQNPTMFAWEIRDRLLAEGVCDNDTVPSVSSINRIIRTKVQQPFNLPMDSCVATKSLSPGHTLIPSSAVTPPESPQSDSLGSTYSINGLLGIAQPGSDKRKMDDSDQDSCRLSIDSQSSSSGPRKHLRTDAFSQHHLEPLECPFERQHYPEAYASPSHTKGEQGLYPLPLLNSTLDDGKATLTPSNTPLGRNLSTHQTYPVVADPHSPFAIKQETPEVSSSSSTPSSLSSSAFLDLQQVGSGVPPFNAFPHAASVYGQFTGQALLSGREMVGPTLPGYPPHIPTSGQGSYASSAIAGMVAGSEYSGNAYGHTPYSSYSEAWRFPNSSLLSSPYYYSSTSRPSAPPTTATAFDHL

CC(C)OCC(O)CN1CCN(CCN2C(=O)c3cccc4cccc(c34)C2=O)CC1 (stereo not drawn)
EC50 [1]: > 300 µM (not active)
EC50 [2]: > 300 µM (not active)
AC50 [3]: 8.86 µM (active)
AC50 [4]: 3.93 µM (active)

COC(=O)c1c(NC(=O)c2ccco2)sc2c1CCN(C(C)C)C2
AC50 [3]: 25.4 µM (active)
EC50 [5]: > 53 µM (inactive)

COc1cc(C(=O)NC2CCN(C)CC2)ccc1Nc1ncc2c(n1)N(CCc1ccccc1)CCC(=O)N2C
AC50 [4]: 8.71 µM (active)

C[C@]12CC[C@H](OC(=O)[C@@H](N)CCCCN)C[C@@H]1CC[C@@H]1[C@@H]2CC[C@@]2(C)[C@H]1CC[C@]2(C)O
AC50 [4]: 1.93 µM (active)

CN1CCc2c(sc(N)c2C(=O)O)C1
AC50 [4]: 11.7 µM (active)

Oc1nc2ccccc2n1C1CCN(C(c2cc3ccccc3o2)c2nnnn2Cc2ccccc2)CC1 (stereo not drawn)
AC50 [6]: 13.5 µM (active)
AC50 (Paired box protein Pax-8): 6.31 µM (active)
AC50 [7]: 24.8 µM (active)
AC50 [8]: 9.44 µM (active)
AC50 [9]: 14.7 µM (active)
AC50 [10]: 9.97 µM (active)
AC50 [11]: 19 µM (active)
AC50 [12]: 9.76 µM (active)

CC1(C(=O)N/N=C/c2ccc3c(c2)OCO3)CC1(Br)Br (stereo not drawn)
AC50 [13]: 5.4 µM (active)
AC50 [14]: 7.47 µM (active)
AC50 [15]: 4.12 µM (active)
AC50 [16]: 7.57 µM (active)

O=C(N[C@@H]1CC[C@@H](CCNS(=O)(=O)c2ccccc2Cl)O[C@@H]1CO)c1ccc(F)cc1
AC50 [12]: 36.1 µM (active)

C=CCN1C(=O)NC(=O)/C(=C(/CC)Nc2ccc(N(C)C)cc2)C1=O
EC50 (Streptococcus): 9.73 µM (active)
EC50 [17]: 5.65 µM (active)
CC50 [18]: > 40 µM (active)
EC50 (Streptokinase A): > 150 µM (not active)

CC1=C(N2CC2)C(=O)C(CO)=C(N2CC2)C1=O
AC50 (Paired box protein Pax-8): < 0.26 µM (active)
AC50 [11]: 14.8 µM (active)

COc1ccc(-c2cc(=O)oc3c(C)c(O)c(CN(C)C)cc23)cc1
AC50 [13]: 13 µM (active)
AC50 [14]: 17.4 µM (active)
AC50 [15]: 18.1 µM (active)
IC50 (H9c2): > 79 µM (inactive)
AC50 [16]: 7.97 µM (active)

Cc1cc2ccc3ccccc3c2cc1CN(C)C
AC50 [3]: 38.3 µM (active)
EC50 (cells [19]): > 350 µM (not active)
EC50 (cells [20]): > 350 µM (not active)

CC(=O)Nc1cccc(NC(=N)Nc2nc(C)cc(C)n2)c1
AC50 [4]: 18.8 µM (active)

COC(=O)[C@@]1(C)[C@H]2C(=O)N(Cc3ccccc3)C(=O)[C@H]2[C@H]2CN=C(SCC3CC3)N21
AC50 [13]: 2.13 µM (active)
AC50 [14]: 7.31 µM (active)
AC50 [15]: 2.3 µM (active)
AC50 [16]: 2.95 µM (active)

COc1ccc(CCNCc2ccc(OCc3ccccc3)cc2)cc1
CC50 [18]: 21.9 µM (active)

CC[C@H](C)[C@H](NC(=O)c1ccc(Cl)cc1)C(=O)OCC(=O)c1ccc2c(c1)NC(=O)CO2
AC50 [12]: 6.76 µM (active)
